ChEMBL document CHEMBL1201862, “PubChem BioAssay data set” (2004)
“And” between values parts separate entries of the source, which are not always exact repeats. Equal values may be shown once.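 48-hour exposure; five concentrations; linearly interpolated endpoints. Here, GI50 denotes the concentration required for 50% inhibition of growth.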 The source made the active and inactive calls. Rule as the data show it: active = GI50 up to about 1.1 µM and inactive = higher.

How the values were obtained:
Assay in all cases: inhibition of tumour cell growth, NCI panel, 48 h
MDA-MB-435 = test system: MDA-MB-435
TK-10 = test system: TK-10
OVCAR-5 = test system: OVCAR-5
SK-OV-3 = test system: SK-OV-3
SK-MEL-28 = test system: SK-MEL-28
MDA-MB-231 = test system: MDA-MB-231
IGROV-1 = test system: IGROV-1
SN12C = test system: SN12C
HT-29 = test system: HT-29
UACC-62 = test system: UACC-62
ACHN = test system: ACHN
RPMI-8226 = test system: RPMI-8226
NCI/ADR-RES = test system: NCI/ADR-RES
MDA-N = test system: MDA-N
Hs-578T = test system: Hs-578T
DU-145 = test system: DU-145
U-251 = test system: U-251
EKVX = test system: EKVX
SF-295 = test system: SF-295
HCT-15 = test system: HCT-15
NCI-H226 = test system: NCI-H226
MCF7 = test system: MCF7
SF-268 = test system: SF-268
RXF 393 = test system: RXF 393
SF-539 = test system: SF-539
LOX IMVI = test system: LOX IMVI
COLO 205 = test system: COLO 205
HCC 2998 = test system: HCC 2998
MOLT-4 = test system: MOLT-4
SNB-75 = test system: SNB-75
HOP-92 = test system: HOP-92
UO-31 = test system: UO-31
HOP-62 = test system: HOP-62
SK-MEL-5 = test system: SK-MEL-5
CCRF-CEM = test system: CCRF-CEM
NCI-H23 = test system: NCI-H23
HL-60 = test system: HL-60
OVCAR-8 = test system: OVCAR-8
786-0 = test system: 786-0
K562 = test system: K562
HCT-116 = test system: HCT-116
A498 = test system: A498
CAKI-1 = test system: CAKI-1
UACC-257 = test system: UACC-257
SW-620 = test system: SW-620
T47D = test system: T47D
NCI-H460 = test system: NCI-H460
OVCAR-3 = test system: OVCAR-3
KM12 = test system: KM12
M14 = test system: M14
PC-3 = test system: PC-3
SK-MEL-2 = test system: SK-MEL-2
Malme-3M = test system: Malme-3M
SNB-19 = test system: SNB-19
A549 = test system: A549
OVCAR-4 = test system: OVCAR-4
NCI-H522 = test system: NCI-H522
SR = test system: SR

Measured: GI50

COCOc1ccc(C(=O)Oc2cccc3c2OC(C)(C)O3)c(OCOC)c1
inactive: MDA-MB-435 60 µM | TK-10 > 100 µM | OVCAR-5 > 100 µM | SK-OV-3 > 100 µM | SK-MEL-28 9.66 µM | MDA-MB-231 15.7 µM | IGROV-1 > 100 µM | SN12C > 100 µM | HT-29 > 100 µM | UACC-62 28.2 µM | ACHN > 100 µM | RPMI-8226 38.7 µM | NCI/ADR-RES > 100 µM | MDA-N > 100 µM | Hs-578T 31.3 µM | DU-145 > 100 µM | U-251 27.9 µM | EKVX > 100 µM | SF-295 > 100 µM | NCI-H226 > 100 µM | MCF7 33.2 µM | SF-268 35.6 µM | RXF 393 78.2 µM | SF-539 37.7 µM | LOX IMVI 35.7 µM | COLO 205 > 100 µM | HCC 2998 62.7 µM | MOLT-4 53.2 µM | SNB-75 74.5 µM | HOP-92 > 100 µM | UO-31 71.1 µM | HOP-62 > 100 µM | SK-MEL-5 54.8 µM | CCRF-CEM 22.1 µM | OVCAR-8 > 100 µM | 786-0 > 100 µM | K562 56.4 µM | HCT-116 > 100 µM | A498 > 100 µM | CAKI-1 > 100 µM | UACC-257 > 100 µM | SW-620 43.2 µM | T47D 37.8 µM | NCI-H460 56 µM | OVCAR-3 > 100 µM | KM12 11.9 µM | M14 89.1 µM
active: NCI-H23 < 0.01 µM | HL-60 0.0181 µM
83.4 µM: HCT-15

COc1ccc(N(CN2C(=O)CCC2C(=O)O)C(C)=O)cc1 (stereo not given)
inactive: MDA-MB-435 > 100 µM | TK-10 > 100 µM | PC-3 > 100 µM | OVCAR-5 > 100 µM | SK-OV-3 > 100 µM | SK-MEL-2 > 100 µM | SK-MEL-28 > 100 µM | MDA-MB-231 > 100 µM | SN12C > 100 µM | HT-29 > 100 µM | UACC-62 > 100 µM | ACHN > 100 µM | RPMI-8226 > 100 µM | NCI/ADR-RES > 100 µM | Malme-3M > 100 µM | MDA-N > 100 µM | Hs-578T > 100 µM | DU-145 > 100 µM | U-251 > 100 µM | EKVX > 100 µM | SF-295 > 100 µM | NCI-H226 > 100 µM | MCF7 > 100 µM | SF-268 > 100 µM | SF-539 > 100 µM | LOX IMVI > 100 µM | COLO 205 > 100 µM | HCC 2998 > 100 µM | MOLT-4 65.5 µM | SNB-75 > 100 µM | HOP-92 > 100 µM | UO-31 > 100 µM | HOP-62 > 100 µM | SK-MEL-5 > 100 µM | CCRF-CEM > 100 µM | NCI-H23 > 100 µM | HL-60 > 100 µM | OVCAR-8 > 100 µM | 786-0 > 100 µM | K562 > 100 µM | HCT-116 > 100 µM | SNB-19 > 100 µM | A498 > 100 µM | CAKI-1 > 100 µM | UACC-257 > 100 µM | SW-620 > 100 µM | A549 > 100 µM | T47D > 100 µM | NCI-H460 > 100 µM | OVCAR-3 > 100 µM | OVCAR-4 > 100 µM | KM12 > 100 µM | M14 > 100 µM | NCI-H522 > 100 µM
> 100 µM: HCT-15

CC(CN(C)C)Nc1c2ccccc2nc2cccc([N+](=O)[O-])c12 (stereo not given)
active: MDA-N 0.23 µM | HL-60 0.203 µM | NCI-H522 0.0268 µM

O=[N+]([O-])c1ccc(Cl)c2c([N+](=O)[O-])cccc12
inactive: MDA-MB-435 3.1 µM | TK-10 9.57 µM | PC-3 7.85 µM | SK-OV-3 2.28 µM | SK-MEL-2 8.34 µM | SK-MEL-28 7.93 µM | IGROV-1 8.02 µM | SN12C 4.56 µM | HT-29 3.26 µM | UACC-62 5.46 µM | RPMI-8226 5.52 µM | Malme-3M 5.82 µM | MDA-N 2.18 µM | EKVX > 10 µM | SF-295 > 10 µM | MCF7 4.43 µM | SF-268 3.87 µM | RXF 393 > 10 µM | SF-539 3.06 µM | LOX IMVI 3.71 µM | COLO 205 4.57 µM | HCC 2998 > 10 µM | MOLT-4 4.9 µM | SNB-75 5.38 µM | HOP-92 3.96 µM | HOP-62 > 10 µM | SK-MEL-5 2.33 µM | CCRF-CEM 2.36 µM | NCI-H23 9.27 µM | HL-60 2.48 µM | OVCAR-8 3.5 µM | 786-0 3.14 µM | K562 4.02 µM | HCT-116 1.76 µM | SNB-19 8.51 µM | SW-620 2.91 µM | A549 > 10 µM | T47D 4.22 µM | OVCAR-3 3.49 µM | OVCAR-4 6.22 µM | KM12 3.2 µM | SR 3.95 µM
2.77 µM: HCT-15

COC(=O)C1c2cc3c(c(O)c2CCC1(C)O)C(=O)c1c(O)cc2c(c1C3=O)OC1OC2(C)C(O)C(N(C)C)C1O (stereo not given)
0.394 µM: HCT-15
active: MDA-MB-435 1.01 µM | TK-10 0.369 µM | PC-3 0.474 µM | OVCAR-5 0.263 µM | MDA-MB-231 0.207 µM | IGROV-1 1.02 µM | SN12C 0.543 µM | HT-29 0.205 µM | UACC-62 0.421 µM | ACHN 0.172 µM | Malme-3M 0.162 µM | Hs-578T 0.338 µM | DU-145 0.139 µM | U-251 0.436 µM | EKVX 0.146 µM | SF-295 0.382 µM | NCI-H226 0.0112 µM | MCF7 0.8 µM | SF-268 0.906 µM | RXF 393 0.205 µM | LOX IMVI 0.226 µM | COLO 205 0.36 µM | MOLT-4 0.121 µM | SNB-75 0.198 µM | HOP-62 0.254 µM | SK-MEL-5 0.385 µM | NCI-H23 0.562 µM | OVCAR-8 0.101 µM | 786-0 1.03 µM | K562 0.223 µM | HCT-116 0.245 µM | SNB-19 0.221 µM | CAKI-1 < 0.01 µM | UACC-257 0.108 µM | SW-620 0.14 µM | A549 0.186 µM | T47D 0.274 µM | NCI-H460 0.452 µM | OVCAR-3 0.0991 µM | OVCAR-4 0.158 µM | KM12 0.345 µM | NCI-H522 1.1 µM | SR < 0.01 µM
inactive: SK-OV-3 1.91 µM | SK-MEL-2 4.76 µM | SK-MEL-28 3.15 µM | NCI/ADR-RES 1.61 µM | SF-539 1.4 µM | UO-31 1.4 µM | HL-60 1.36 µM | M14 1.75 µM

O=C1CC(CC(OCc2ccccc2)C(OCc2ccccc2)C(COCc2ccccc2)OCc2ccccc2)CC(=O)N1 (stereo not given)
inactive: TK-10 > 100 µM and 81.8 µM | MDA-MB-231 8.67 µM | HT-29 4.53 µM | HOP-92 > 100 µM | T47D > 10 µM

CC(C)(O)/C=C\P(C)(=O)c1ccccc1 (stereo not given)
inactive: MDA-MB-435 > 100 µM | TK-10 > 100 µM | PC-3 > 100 µM | OVCAR-5 > 100 µM | SK-OV-3 > 100 µM | SK-MEL-2 > 100 µM | SK-MEL-28 > 100 µM | IGROV-1 > 100 µM | SN12C > 100 µM | HT-29 > 100 µM | UACC-62 > 100 µM | ACHN > 100 µM | RPMI-8226 39.4 µM | NCI/ADR-RES > 100 µM | Malme-3M > 100 µM | MDA-N > 100 µM | Hs-578T > 100 µM | DU-145 > 100 µM | U-251 > 100 µM | EKVX > 100 µM | SF-295 > 100 µM | NCI-H226 > 100 µM | MCF7 > 100 µM | SF-268 > 100 µM | RXF 393 > 100 µM | SF-539 > 100 µM | LOX IMVI > 100 µM | COLO 205 > 100 µM | HCC 2998 > 100 µM | SNB-75 > 100 µM | HOP-92 > 100 µM | HOP-62 > 100 µM | SK-MEL-5 > 100 µM | NCI-H23 > 100 µM | OVCAR-8 > 100 µM | 786-0 > 100 µM | K562 > 100 µM | HCT-116 > 100 µM | SNB-19 > 100 µM | CAKI-1 > 100 µM | UACC-257 > 100 µM | SW-620 > 100 µM | A549 > 100 µM | T47D > 100 µM | NCI-H460 > 100 µM | OVCAR-3 > 100 µM | OVCAR-4 > 100 µM | KM12 > 100 µM | M14 > 100 µM | NCI-H522 > 100 µM | SR > 100 µM
> 100 µM: HCT-15
